Active and inactive are the calls of the source. The calls are words filed in the database; no cut-off is given here.
How the values were obtained:
LoVo = experiment: Cytotoxicity against human LoVo cells at 10 ug/mL after 24 hrs by MTT assay; type: functional, cell-based
KB = experiment: Cytotoxicity against human KB cells at 10 ug/mL after 24 hrs by MTT assay; type: functional, cell-based
MOLT-4 = experiment: Cytotoxicity against human MOLT4 cells after 24 hrs by MTT assay; type: functional, cell-based; settings: MOLT-4, 24 h
[1] = Toxicity in brine shrimp at 100 ppm; type: organism-based; settings: artemia, in vivo; read-out: Activity
[2] = Toxicity in brine shrimp at 10 ppm; type: organism-based; settings: artemia, in vivo; read-out: Activity
MCF7 = experiment: Cytotoxicity against human MCF7 cells after 24 hrs by MTT assay; type: functional, cell-based; settings: MCF7, 24 h

Row | Compound | Activity (LoVo) | Activity (KB) | IC50 (MOLT-4) | mortality at 100 ppm [1] | mortality at 10 ppm [2] | IC50 (MCF7)
1 | C#CCCC[C@H]1OC(=O)[C@H]([C@@H](C)CC)NC(=O)[C@@H]2CCCN2C(=O)[C@H](Cc2ccccc2)OC(=O)[C@H](C(C)C)N(C)C(=O)[C@H](C(C)C)NC(=O)[C@H]1C | inactive | inactive | – | – | – | –
2 | C#CCCC[C@@H]1OC(=O)[C@H](C(C)C)N(C)C(=O)[C@@H]2CCCN2C(=O)[C@H](Cc2ccccc2)OC(=O)[C@H]([C@@H](C)CC)N(C)C(=O)[C@H](C(C)C)NC(=O)C1C (stereo partly drawn) [HANTUPEPTIN A] | inactive | inactive | 0.032 µM | 100% | 100% | 4 µM
